Results from publication PMC5344293, “A phase 1 dose-escalation and expansion study of binimetinib (MEK162), a potent and selective oral MEK1/2 inhibitor” (British Journal of Cancer, 2017).
Several values for one entry are separate records, joined by “and”; a condition that tells them apart may be missing. Equal values may be shown once. Entries after “also recorded” stand apart in the source; their conditions may differ. Read-outs that look alike come from different tables or passages of the source.

What was measured:
advanced solid tumours = experiment: Tumour response, RECIST version 1.1; type: in vivo, human
Experimental: Efficacy was assessed through radiologic scans and clinical measurements of disease sites (if applicable), and evaluation of serologic tumour markers in patient blood samples as appropriate for tumour type. Tumour assessments were performed within 21 days before the first dose and then every 6 weeks starting at the end of cycle 2. Tumour response was evaluated by the investigator using Response Evaluation Criteria in Solid Tumours (RECIST) version 1.1 criteria. Tumour marker levels were incorporated into the overall response assessment per RECIST.
All patients who received ⩾1 dose of binimetinib were included in the safety analysis. Patients in the safety analysis who had ⩾1 measurable lesion at baseline and at least 1 post-baseline disease assessment were evaluable for efficacy. Kaplan–Meier estimates of progression-free survival (PFS) and overall survival (OS) were performed for patients in the expansion phase ([Kaplan and Meier, 1958]) using SAS Version 9.2 (SAS Institute Inc., Cary, NC, USA).

NRAS-mutant melanoma = tested on: NRAS-mutant melanoma; design: method as in Ascierto et al, 2013; Van Herpen et al, 2015; details: patients with advanced NRAS-mutant melanoma; ref Ascierto et al, 2013; Van Herpen et al, 2015; cited from earlier work
pMEK = experiment: Skin punch biopsy pMEK expression; type: in vivo, human; details: pre-dose and post-dose skin punch biopsies
[1] = Plasma pharmacokinetics in patients; type: in vivo, human; details: for RAUC (accumulation ratio) / Cmax / AUC(0-t): geometric mean (% CV); for Cmax / AUC(0-t) / Tmax: human, plasma, oral
Experimental: Blood for plasma binimetinib and metabolite concentration assessments was collected on cycle 1 day 1 (pre-dose and 30 min to 24 h post dose), cycle 1 day 15 (pre-dose and 30 min to 8 h post dose), and cycles 2 to 8 day 1 (pre-dose) from patients in the dose-escalation phase and from selected patients in the biliary cancer cohort of the expansion phase (intensive pharmacokinetic sampling). The remaining patients in the expansion phase underwent limited pharmacokinetic sampling on cycle 1 day 1 (pre-dose), cycle 1 day 8 (pre-dose), cycle 1 day 15 (pre-dose and 30 min to 8 h post dose), cycle 2 day 1 (pre-dose), cycle 3 day 1 (pre-dose and 30 min to 8 h post dose), and cycles 4–8 day 1 (pre-dose). Standard non-compartmental pharmacokinetic parameters were calculated on serial pharmacokinetic collection days (cycle 1 day 1 and cycle 1 day 15 for the dose-escalation phase; cycle 1 day 15 and cycle 3 day 1 for the expansion phase) for each patient and summarised by cohort. Dose proportionality, accumulation, and metabolite-to-parent ratio were assessed as appropriate.

SMILES: Cn1cnc2c(F)c(Nc3ccc(Br)cc3F)c(C(=O)NOCCO)cc21 [binimetinib]
- Best response of stable disease, patients (advanced solid tumours): 36%
- Objective responses among patients with biliary cancer (advanced solid tumours; 3 of 30 patients with biliary cancer): 10%
- Responses in patients with colorectal cancer (advanced solid tumours; KRAS- or BRAF-mutant cohorts): no responses
- Objective responses, number of patients (advanced solid tumours; all in patients with biliary cancer): Three
- Duration of complete response (advanced solid tumours; biliary cancer): 11.3 months
- Duration of partial response (advanced solid tumours; biliary cancer, two patients): 10.2 months and 17.9 months
- Objective responses (advanced solid tumours; of 91 patients evaluable for response): 3%
- Complete responses, number of patients (advanced solid tumours; patients with biliary cancer): one
- Partial responses, number of patients (advanced solid tumours; patients with biliary cancer): two
- Median duration of stable disease (advanced solid tumours; range, 0.92–11.53 months): 3.94 months
- Response rate (NRAS-mutant melanoma): 15%
- Change in skin pMEK relative to baseline (pMEK): no notable changes
- RAUC (accumulation ratio) ([1]; cycle 1 day 15, Total (N=26)): 1.44 (32.8)
- RAUC (accumulation ratio) ([1]; cycle 1 day 15, expansion Biliary 60 mg BID (n=7)): 2.50 (NC)
- Cmax ([1]; 30 mg BID, cycle 1 day 1, dose-escalation 30 mg BID (n=4)): 327 ng/mL
- AUC(0-t) ([1]; 30 mg BID, cycle 1 day 1, dose-escalation 30 mg BID (n=4), intensive sampling, read-out: AUC0–8): 1000 ng·h/mL
- Tmax ([1]; 30 mg BID, cycle 1 day 1, dose-escalation 30 mg BID (n=4), median (minimum–maximum), read-out: tmax): 1.51 h
- Tmax ([1]; 30 mg BID, cycle 1 day 15, dose-escalation 30 mg BID (n=4), median (minimum–maximum), read-out: tmax): 1.5 h
- Cmax ([1]; 30 mg, cycle 1 day 15, dose-escalation 30 mg BID (n=4)): 417 ng/mL
- Cmax ([1]; 45 mg BID, cycle 1 day 1, dose-escalation 45 mg BID (n=4)): 241 ng/mL
- AUC(0-t) ([1]; 45 mg BID, cycle 1 day 1, dose-escalation 45 mg BID (n=4), intensive sampling, read-out: AUC0–8): 964 ng·h/mL
- Tmax ([1]; 45 mg BID, cycle 1 day 1, dose-escalation 45 mg BID (n=4), median (minimum–maximum), read-out: tmax): 2.53 h
- Tmax ([1]; 45 mg BID, cycle 1 day 15, dose-escalation 45 mg BID (n=4), median (minimum–maximum), read-out: tmax): 2 h
- Cmax ([1]; 45 mg, cycle 1 day 15, dose-escalation 45 mg BID (n=4)): 273 ng/mL
- AUC(0-t) ([1]; 45 mg, cycle 1 day 15, dose-escalation 45 mg BID (n=4), read-out: AUC0-8): 1490 ng·h/mL
- Cmax ([1]; 60 mg BID, cycle 1 day 1, dose-escalation 60 mg BID (n=7)): 545 ng/mL
- AUC(0-t) ([1]; 60 mg BID, cycle 1 day 1, dose-escalation 60 mg BID (n=7), intensive sampling, read-out: AUC0–8): 1710 ng·h/mL
- Tmax ([1]; 60 mg BID, cycle 1 day 1, dose-escalation 60 mg BID (n=7), median (minimum–maximum), read-out: tmax): 1 h
- Tmax ([1]; 60 mg BID, cycle 1 day 15, dose-escalation 60 mg BID (n=7), median (minimum–maximum), read-out: tmax): 3 h
- Cmax ([1]; 60 mg, cycle 1 day 1, expansion Biliary 60 mg BID (n=7)): 365 ng/mL
- AUC(0-t) ([1]; 60 mg, cycle 1 day 1, expansion Biliary 60 mg BID (n=7), intensive sampling, read-out: AUC0–8): 1090 ng·h/mL
- Tmax ([1]; 60 mg, cycle 1 day 1, expansion Biliary 60 mg BID (n=7), median (minimum–maximum), read-out: tmax): 1.5 h
- Cmax ([1]; 60 mg, cycle 1 day 15, dose-escalation 60 mg BID (n=7)): 512 ng/mL
- AUC(0-t) ([1]; 60 mg, cycle 1 day 15, dose-escalation 60 mg BID (n=7), read-out: AUC0-8): 1820 ng·h/mL
- Cmax ([1]; 60 mg, cycle 1 day 15, expansion Biliary 60 mg BID (n=7)): 594 ng/mL
- AUC(0-t) ([1]; 60 mg, cycle 1 day 15, expansion Biliary 60 mg BID (n=7), read-out: AUC0-8): 3760 ng·h/mL
- Tmax ([1]; 60 mg, cycle 1 day 15, expansion Biliary 60 mg BID (n=7), median (minimum–maximum), read-out: tmax): 1.5 h
- Cmax ([1]; 80 mg BID, cycle 1 day 1, dose-escalation 80 mg BID (n=4)): 687 ng/mL
- AUC(0-t) ([1]; 80 mg BID, cycle 1 day 1, dose-escalation 80 mg BID (n=4), intensive sampling, read-out: AUC0–8): 2220 ng·h/mL
- Tmax ([1]; 80 mg BID, cycle 1 day 1, dose-escalation 80 mg BID (n=4), median (minimum–maximum), read-out: tmax): 2.02 h
- Tmax ([1]; across all dose levels and both sampling schemes, read-out: tmax, median values): 0.5 to 4 h
- Tmax ([1]; cycle 1 day 1, Total (N=26), median (minimum–maximum), read-out: tmax): 1.5 h
- Tmax ([1]; cycle 1 day 15, Total (N=26), median (minimum–maximum), read-out: tmax): 1.5 h
- Pre-dose concentrations on cycle 1 day 15 versus 12 h concentrations on day 1 ([1]; intensive pharmacokinetic sampling): up to threefold higher
- Steady state ([1]; limited sampling, 45 and 60 mg BID, no formal steady-state analysis): likely at steady state by cycle 1 day 15
- Dose proportionality of exposure ([1]; over the dose range tested, days 1 and 15 of cycle 1): Dose-proportional increases; also recorded: approximately dose proportional
